Values of other authors as cited in patent US20050220913A1, “Novel in-expensive and efficient process for isolation of imperatorin, a potent inducible nitric oxide synthase inhibitor and anti-inflammatory drug candidate from Aegle marmelos Correa” (Council of Scientific and Industrial Research, priority 2004, published 2005).

Assays:
[1] = tested on: inducible nitric oxide synthase (iNOS); conditions: imperatorin isolated from Saposhnikovia divaricata; Yang et al. 1999
HL-60 cells = conditions: Kawa et al. 2000
[2] = tested on: human promyelocytic leukaemia, HL-60 cells; conditions: at micromolar concentrations; imperatorin from roots of Angelica dahurica; Hyun-Ock et al. 2002

SMILES: CC(C)=CCOc1c2occc2cc2ccc(=O)oc12 [Imperatorin]
- IC50 value for inhibition of nitrite production [1]: 17.3 mg/L
- activity of HL-60 cells by nitro blue tetrazolium (NBT) method (HL-60 cells): strong activity
- induction of apoptosis of HL-60 cells [2]: able to trigger apoptosis of HL-60 cells
